From patent US7811605B2, “Method of formation of shape-retentive aggregates of gel particles and their uses” (ULURU Inc., priority 2002, dated 2010) come the findings set out here.

A short description of the data set: Entrapment and release of bromocresol green from particle aggregates in PBS, UV-Visible absorption. It is filed as physicochemical. As to conditions: 1 mg dye in 2 mL Tween 80 stabilized pHEMA particles, 36 mg/mL, injected into PBS; discrete particles and 50:50 mixtures of two sizes. As for the experimental part: Injection of a dispersion of particles with a small molecule dissolved in the suspension medium forms an aggregate that traps some of the small molecule. In a typical experiment, 1 mg of bromocresol green dye was dissolved into 2 mL of a suspension of Tween 80 stabilized pHEMA particles (725 nm in diameter) with a hydrated polymer mass of 36 mg/mL. The dispersed particles and dye were injected into a solution of phosphate buffered saline. After 10 minutes of aggregation, the solution was shaken at 10 cycles per second to insure adequate mixing. 2 mL samples of supernatant were taken and characterized by UV-Visible absorption spectroscopy. […] In both cases, most of the small molecule is released within the first 3-5 hours, however, the burst effect is smaller in the mixed aggregate system.

Take `Cc1c(C2(c3cc(Br)c(O)c(Br)c3C)OS(=O)(=O)c3ccccc32)cc(Br)c(O)c1Br` [bromocresol green]: the “time within which most of the small molecule is released” value fell in the range of 3 to 5 h.
